# Test results: US8524890B2, “Water-soluble phthalocyanine dye” (National Institute for Materials Science, priority 2009, dated 2013)
# What was measured:
# Assay type in all cases: physicochemical
# [1] = Solubility and aggregation in pure water
# [2] = Solubility and aggregation in aqueous Triton-X100 solution (optical absorption spectra, FIG. 8, FIG. 9)
# [3] = Solubility and aggregation in mixed water/ethanol solvent (optical absorption spectra, FIG. 7)
substance,measurement,setting,value
[Sb(tbpc)(SO4)(HSO4)].4H2O [Compound 2],aggregation in pure water,[1],strong aggregation
same,concentration up to which the dye remains disaggregated,"[2]; Triton-X100 2% (w/v), absorbance at around 730 nm (FIG. 9)",20 µM
same,aggregation state above certain concentration of the surfactant,"[2]; aqueous Triton-X100, above certain surfactant concentration (FIG. 8)",remains dissolved in a disaggregated form
same,solubility in the presence of Triton-X100,"[2]; aqueous, Triton-X100 present",grows high
same,aggregation state,[3]; 10% (v/v) ethanol,substantially aggregated form
same,aggregation state,[3]; 30% (v/v) ethanol,a peak ascribable to disaggregated species is clearly observed
same,aggregation state,[3]; 50% ethanol,contribution of aggregated species is negligible
same,water solubility on addition of alcohol,[3]; alcohol added,greatly improved
